Measurements as given in ChEMBL document CHEMBL1201862, “PubChem BioAssay data set” (2004).
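Dose response: 5 concentrations. Exposure: 48 h. Format: 96-well plates. Endpoint: linear interpolation; highest concentration if not reached. GI50 = concentration required for 50% inhibition of growth.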 Calls of active or inactive are those of the source. Rule as the data show it: active = GI50 up to about 1.1 µM and inactive = higher.

Tests used:
Experiment in all cases: inhibition of tumour cell growth, NCI panel, 48 h
UACC-62 = system: UACC-62
NCI-H522 = system: NCI-H522
NCI-H226 = system: NCI-H226
ACHN = system: ACHN
HL-60 = system: HL-60
COLO 205 = system: COLO 205
PC-3 = system: PC-3
T47D = system: T47D
SF-295 = system: SF-295
DU-145 = system: DU-145
MCF7 = system: MCF7
NCI-H23 = system: NCI-H23
CCRF-CEM = system: CCRF-CEM
IGROV-1 = system: IGROV-1
A549 = system: A549
SK-MEL-5 = system: SK-MEL-5
SN12C = system: SN12C
OVCAR-8 = system: OVCAR-8
U-251 = system: U-251
HT-29 = system: HT-29
HOP-92 = system: HOP-92
UO-31 = system: UO-31
SK-OV-3 = system: SK-OV-3
LOX IMVI = system: LOX IMVI
SF-539 = system: SF-539
K562 = system: K562
OVCAR-3 = system: OVCAR-3
SK-MEL-28 = system: SK-MEL-28
RPMI-8226 = system: RPMI-8226
MDA-MB-435 = system: MDA-MB-435
NCI/ADR-RES = system: NCI/ADR-RES
EKVX = system: EKVX
786-0 = system: 786-0
Malme-3M = system: Malme-3M
MDA-N = system: MDA-N
CAKI-1 = system: CAKI-1
HCT-15 = system: HCT-15
SK-MEL-2 = system: SK-MEL-2
HOP-62 = system: HOP-62
HCC 2998 = system: HCC 2998
SF-268 = system: SF-268
SNB-75 = system: SNB-75
MDA-MB-231 = system: MDA-MB-231
M14 = system: M14
MOLT-4 = system: MOLT-4
BT-549 = system: BT-549
HCT-116 = system: HCT-116
NCI-H460 = system: NCI-H460
SNB-19 = system: SNB-19
SW-620 = system: SW-620
UACC-257 = system: UACC-257
OVCAR-5 = system: OVCAR-5

With `CCN(CC)C(=S)N/N=C/c1ccccn1` the GI50 (UACC-62) was < 32.8 nM (active), the GI50 (NCI-H522) was < 10 nM (active) and the GI50 (NCI-H226) was < 13.8 nM (active). The GI50 (ACHN) was < 17.2 nM (active), the GI50 (HL-60) was < 14.9 nM (active) and the GI50 (COLO 205) was < 10 nM (active). For the same compound, the GI50 (PC-3) was < 10 nM (active), the GI50 (T47D) was < 10 nM (active) and the GI50 (SF-295) was < 48.3 nM (active). For the same compound, the GI50 (DU-145) was 154 nM (active), the GI50 (MCF7) was < 10 nM (active) and the GI50 (NCI-H23) was < 10 nM (active). The GI50 (CCRF-CEM) was < 10 nM (active), the GI50 (IGROV-1) was < 10 nM (active) and the GI50 (A549) was 23.9 nM (active). For the same compound, the GI50 (SK-MEL-5) was < 17.4 nM (active), the GI50 (SN12C) was 21.2 nM (active) and the GI50 (OVCAR-8) was < 10 nM (active). For the same compound, the GI50 (U-251) was < 10 nM (active), the GI50 (HT-29) was < 10 nM (active) and the GI50 (HOP-92) was 113 nM (active). The GI50 (UO-31) was 41.5 nM (active), the GI50 (SK-OV-3) was < 19.2 nM (active) and the GI50 (LOX IMVI) was < 10 nM (active). The GI50 (SF-539) was < 38.2 nM (active), the GI50 (K562) was < 10 nM (active) and the GI50 (OVCAR-3) was < 10 nM (active). The GI50 (SK-MEL-28) was 187 nM (active), the GI50 (RPMI-8226) was < 10 nM (active) and the GI50 (MDA-MB-435) was 120 nM (active). For the same compound, the GI50 (NCI/ADR-RES) was < 10 nM (active), the GI50 (EKVX) was < 10 nM (active) and the GI50 (786-0) was < 10 nM (active). The GI50 (Malme-3M) was 20.5 nM (active), the GI50 (MDA-N) was 166 nM (active) and the GI50 (CAKI-1) was < 10 nM (active). For the same compound, the GI50 (HCT-15) was < 10 nM, the GI50 (SK-MEL-2) was 625 nM (active) and the GI50 (HOP-62) was < 10 nM (active). The GI50 (HCC 2998) was 149 nM (active), the GI50 (SF-268) was < 17.7 nM (active) and the GI50 (SNB-75) was 624 nM (active). For the same compound, the GI50 (MDA-MB-231) was < 10 nM (active), the GI50 (M14) was 32.4 nM (active) and the GI50 (MOLT-4) was < 10 nM (active). The GI50 (BT-549) was 370 nM (active), the GI50 (HCT-116) was < 10 nM (active) and the GI50 (NCI-H460) was 14.3 nM (active). For the same compound, the GI50 (SNB-19) was < 11.8 nM (active), the GI50 (SW-620) was < 10 nM (active) and the GI50 (UACC-257) was < 10 nM (active). For the same compound, the GI50 (OVCAR-5) was 200 nM (active).
